# Test results published in patent US20030162803A1, “Anhydrovinblastine for the treatment of cancer” (priority 1997, published 2003).
# Entries after “also recorded” stand apart in the source; their conditions may differ.
# How the values were obtained:
# [1] = Toxicological studies in dogs; type: in vivo
# [2] = Phase I clinical trial, toxicity and MTD; type: in vivo, human patients
# Experimental: Patients had normal bone marrow, hepatic and renal function. Twenty-four patients were treated with escalating doses of AHVB, administered as a 1 hour infusion every 3 weeks. The 24 patients comprised 12 male and 12 female patients with a median age of 60 years (range 27-75 years). Twenty-one of the 24 patients were evaluable. Diagnoses were non-small cell lung cancer (NSCLC), colorectal cancer, soft tissue sarcoma, pancreatic cancer, breast cancer and metastatic neuroendocrine cancer in 11, 5, 4, 1, 1, and 1 patient(s), respectively. […] A total of 51 courses were administered at doses of 2.5, 5, 10,16.5, 21,25 and 30 mg/m^2 to 1,3, 1,3, 6, 6 and 1 patient(s), respectively (see Table 4).
# The first patient was entered in the trial at the 2.5 mg/m^2 dose level. […] Five patients were enrolled at the 16.5 mg/m^2 dose level because two patients were not evaluable and had to be replaced. […] Six patients were enrolled at the 25 mg/m^2 dose level. […] This dose level, therefore, exceeded the MTD.
# Seven patients were enrolled at the 21 mg/m^2 dose level, but only 6 were evaluable for toxicity due to one patient developing Grade 2 hypertension, headache, nausea and vomiting at the start of the infusion, which recurred on rechallenge. This patient received only 15 ml of the drug solution and, therefore, was not evaluable to assess toxicity. […] The nausea and vomiting observed at the 21 mg/m^2 dose level was a DLT. It was determined that the 21 mg/m^2 dose is the MTD.
# [3] = test system: H460 human non-small cell lung carcinoma tumor xenograph; test: H460 SC tumor mouse model; type: in vivo, SCID/Rag-2 mice
# Experimental: Cultures of H460 Human Lung cells are available from the British Columbia Cancer Research Center. Cells were injected subcutaneously twice into mature male Rag-2 mice (24 mice, 1×10^6 cells/mouse) using a 26-gauge needle. The H460 cells were suspended in a Hank's Balanced Salt Solution without calcium. Tumors were allowed to form in the mice for 11 days.
# When the tumors were well established, four separate groups of mice, were selected for administration of the three test articles (i.e. one group for each test article of AHVB bisulphate, AHVB ditartrate, and Navelbine™) and one control.
# AHVB bisulphate and ditartrate, and Navelbine™ were solubilized using 5% dextrose saturated with Argon. Both of these articles were at a concentration of 20 mg/ml. Any dose dilutions were made with 5% dextrose.
# The articles were administered intravenously on the days 1, 5 and 9, as were controls of 5% dextrose. Body weights and tumor measurements with calipers were taken every day for the first 10 days and then every other day for the remainder of the study.
# Following administration of the test articles, the animals; weight and tumor size (using calipers) were determined daily for the first 10 days and then every other day for the remainder of the study. If the tumor size reached 1 gram in weight or the tumor started to ulcerate, the animals were sacrificed (by carbon dioxide inhalation) and subjected to necropsy. Animals were also monitored at least daily for signs of stress for the full length of the study. Animals manifesting severe symptoms of stress (rapid weight loss, panting, hunched posture, scruffy coat) were also sacrificed and a necropsy performed.
# The results of the efficacy studies are given in FIG. 9 and present averages of data from 6 or fewer animals. […] Each tumor was measured in length and width and the volume of each tumor was calculated by […]. […] The calculation was performed each day the tumors were measured. The standard deviation of the mean and the standard error of the mean were calculated with the error bars appearing in the graph in FIG. 9. […]
# [4] = single agent; cited from earlier work
# [5] = IV 10 mg/kg and 20 mg/kg on days 1, 5 and 9
SMILES,toxicities [1],"toxicities ([2]; 5 mg/m^2, 1 hour IV infusion every 3 weeks)","toxicities ([2]; 10 mg/m^2, 1 hour IV infusion every 3 weeks)","toxicities ([2]; 16.5 mg/m^2, 1 hour IV infusion every 3 weeks)","toxicities ([2]; 21 mg/m^2, 1 hour IV infusion every 3 weeks)","toxicities ([2]; 25 mg/m^2, 1 hour IV infusion every 3 weeks)","toxicities ([2]; 30 mg/m^2, 1 hour IV infusion every 3 weeks)","MTD (maximum-tolerated dose) ([2]; 1 hour IV infusion every 3 weeks, patients) [mg/m^2]","toxicity compared with Navelbine [3, 5]","tumor growth inhibition compared with Navelbine [3, 5]","activity compared with vincristine and vinorelbine ([3]; human tumor xenografts of NSCLC, equitoxic doses)","mild to moderate peripheral neuropathy (paresthesia and hypesthesia), frequency [4]"
"CCC1=C[C@H]2CN(CCc3c([nH]c4ccccc34)[C@@](C(=O)OC)(c3cc4c(cc3OC)N(C)[C@H]3[C@@](O)(C(=O)OC)[C@H](OC(C)=O)[C@]5(CC)C=CCN6CC[C@]43[C@@H]65)C2)C1 [AHVB, 3′,4′-anhydrovinblastine]",reversible myelosupression and gastrointestinal toxicities,"Grade 2 anorexia, hyperamylasemia, and increased serum creatinine; also recorded: One patient treated developed Grade 2 elevated amylase,; also recorded: elevated creatine and anorexia requiring an additional 2",One patient treated with minimal toxicity,"Grade 2 toxicities including infusional hypertension, anemia and dizziness; also recorded: replaced. The next patient showed Grade 2 toxicities; also recorded: two patients had minimal toxicities",Grade 3 nausea and vomiting and Grade 2 constipation; also recorded: patient exhibited Grade 3 nausea and vomiting. This does,"DLTs including Grade 4 level constipation and Grade 3 nausea and vomiting; also recorded: grade 4 constipation, Grade 3 tumor pain, nausea, vomiting,; also recorded: anemia and Grade 4 neutropenia (1 patient)",One patient treated developed Grade 3 leukopenia.,21,less toxic than Navelbine™,greater tumor growth inhibition,superior activity to that of both vincristine and vinorelbine,–
"CCC1=C[C@@H]2CN(C1)Cc1c([nH]c3ccccc13)[C@@](C(=O)OC)(c1cc3c(cc1OC)N(C)[C@H]1[C@@](O)(C(=O)OC)[C@H](OC(C)=O)[C@]4(CC)C=CCN5CC[C@]31[C@@H]54)C2 [Navelbine, 3′,4′-didehydro-4′-deoxy-C′-norvincaleukoblastine-di-L-tartrate]",–,–,–,–,–,–,–,–,–,–,–,10 % of patients
